Experimental data published in ChEMBL document CHEMBL3991601, “The target landscape of clinical kinase drugs” (Science, 2017).
The source made the active and inactive calls.

Assays:
[1] = molecular target: Dual specificity protein kinase CLK3 (Homo sapiens, UniProt P49761); type: subcellular, K-562, COLO 205, SK-N-BE(2) and MV-4-11, Cell lysate; settings: read-out: Kd apparent
[2] = molecular target: Uncharacterized aarF domain-containing protein kinase 5 (Homo sapiens, UniProt Q3MIX3)
[3] = molecular target: Serine/threonine-protein kinase N3 (Homo sapiens, UniProt Q6P5Z2)
Serine/threonine-protein kinase N3, sequence (Q6P5Z2 whole entry): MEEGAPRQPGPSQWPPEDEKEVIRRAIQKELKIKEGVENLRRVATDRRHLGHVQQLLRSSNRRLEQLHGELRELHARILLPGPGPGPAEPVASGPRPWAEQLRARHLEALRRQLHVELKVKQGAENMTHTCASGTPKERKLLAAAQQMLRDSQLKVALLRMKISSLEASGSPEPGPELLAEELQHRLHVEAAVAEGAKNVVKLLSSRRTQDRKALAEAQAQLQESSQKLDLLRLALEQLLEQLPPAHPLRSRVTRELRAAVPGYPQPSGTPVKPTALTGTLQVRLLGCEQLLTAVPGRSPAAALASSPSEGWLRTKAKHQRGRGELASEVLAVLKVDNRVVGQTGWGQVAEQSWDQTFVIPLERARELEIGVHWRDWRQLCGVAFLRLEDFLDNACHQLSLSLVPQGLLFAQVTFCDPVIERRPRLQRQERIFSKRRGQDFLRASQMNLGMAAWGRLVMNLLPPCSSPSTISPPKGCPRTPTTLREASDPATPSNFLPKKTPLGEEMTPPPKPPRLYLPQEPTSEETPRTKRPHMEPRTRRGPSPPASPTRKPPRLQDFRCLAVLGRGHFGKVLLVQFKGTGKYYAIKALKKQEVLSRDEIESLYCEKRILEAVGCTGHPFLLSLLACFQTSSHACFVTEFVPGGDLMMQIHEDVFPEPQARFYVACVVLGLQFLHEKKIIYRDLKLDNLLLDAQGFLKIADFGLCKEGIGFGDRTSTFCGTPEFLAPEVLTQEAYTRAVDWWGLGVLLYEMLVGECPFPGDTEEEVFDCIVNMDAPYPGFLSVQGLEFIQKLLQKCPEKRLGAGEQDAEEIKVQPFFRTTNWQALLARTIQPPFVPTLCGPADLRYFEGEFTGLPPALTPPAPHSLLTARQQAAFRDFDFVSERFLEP

Focal adhesion kinase 1 = Focal adhesion kinase 1 (Homo sapiens, UniProt Q05397)
Focal adhesion kinase 1, sequence (Q05397 whole entry): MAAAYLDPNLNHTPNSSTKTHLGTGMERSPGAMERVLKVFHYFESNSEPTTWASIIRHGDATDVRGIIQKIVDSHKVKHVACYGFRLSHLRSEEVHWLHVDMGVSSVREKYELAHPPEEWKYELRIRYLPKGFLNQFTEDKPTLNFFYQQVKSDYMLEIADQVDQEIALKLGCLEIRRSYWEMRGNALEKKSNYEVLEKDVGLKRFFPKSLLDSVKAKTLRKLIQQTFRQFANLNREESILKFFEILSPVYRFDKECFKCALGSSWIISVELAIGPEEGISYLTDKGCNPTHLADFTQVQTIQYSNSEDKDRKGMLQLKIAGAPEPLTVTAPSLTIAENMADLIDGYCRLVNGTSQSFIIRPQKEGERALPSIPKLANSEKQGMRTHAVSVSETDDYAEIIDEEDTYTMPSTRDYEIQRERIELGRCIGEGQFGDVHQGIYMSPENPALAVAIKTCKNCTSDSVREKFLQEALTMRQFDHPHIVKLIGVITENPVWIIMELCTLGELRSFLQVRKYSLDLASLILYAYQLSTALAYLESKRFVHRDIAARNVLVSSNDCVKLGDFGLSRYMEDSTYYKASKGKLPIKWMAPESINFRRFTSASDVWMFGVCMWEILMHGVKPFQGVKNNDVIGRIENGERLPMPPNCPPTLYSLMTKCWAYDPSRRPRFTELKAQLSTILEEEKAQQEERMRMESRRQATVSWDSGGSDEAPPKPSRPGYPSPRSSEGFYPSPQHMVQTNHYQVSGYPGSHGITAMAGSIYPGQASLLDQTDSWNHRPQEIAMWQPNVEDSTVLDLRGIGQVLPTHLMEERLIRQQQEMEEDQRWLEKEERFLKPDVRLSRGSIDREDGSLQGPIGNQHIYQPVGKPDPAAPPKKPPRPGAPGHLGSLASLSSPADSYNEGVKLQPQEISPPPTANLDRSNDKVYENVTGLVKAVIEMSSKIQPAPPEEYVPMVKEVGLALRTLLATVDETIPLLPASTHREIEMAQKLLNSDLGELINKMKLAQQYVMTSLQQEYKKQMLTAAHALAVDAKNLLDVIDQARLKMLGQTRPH

[4] = molecular target: Dual specificity testis-specific protein kinase 1 (Homo sapiens, UniProt Q15569)
Dual specificity testis-specific protein kinase 1, sequence (Q15569 whole entry): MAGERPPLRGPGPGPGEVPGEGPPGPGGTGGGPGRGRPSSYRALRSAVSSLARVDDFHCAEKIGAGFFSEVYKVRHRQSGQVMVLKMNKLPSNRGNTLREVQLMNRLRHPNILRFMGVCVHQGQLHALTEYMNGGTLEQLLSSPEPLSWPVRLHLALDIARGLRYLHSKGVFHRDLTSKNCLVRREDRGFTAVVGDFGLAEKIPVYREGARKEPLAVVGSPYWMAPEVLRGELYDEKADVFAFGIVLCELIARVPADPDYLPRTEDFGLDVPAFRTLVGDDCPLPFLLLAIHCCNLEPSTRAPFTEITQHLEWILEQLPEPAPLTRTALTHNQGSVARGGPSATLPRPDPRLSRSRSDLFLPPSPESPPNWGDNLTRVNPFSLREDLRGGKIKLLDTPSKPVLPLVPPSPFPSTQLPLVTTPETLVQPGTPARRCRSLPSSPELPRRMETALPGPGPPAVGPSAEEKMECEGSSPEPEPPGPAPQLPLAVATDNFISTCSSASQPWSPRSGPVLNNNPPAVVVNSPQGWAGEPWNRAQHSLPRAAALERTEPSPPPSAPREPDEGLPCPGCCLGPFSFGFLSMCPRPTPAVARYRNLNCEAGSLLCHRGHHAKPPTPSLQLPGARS

[5] = molecular target: T1, Thyroid hormone receptor-associated protein 3 (Homo sapiens, UniProt Q9Y2W1)
T1 sequence (Q9Y2W1 whole entry): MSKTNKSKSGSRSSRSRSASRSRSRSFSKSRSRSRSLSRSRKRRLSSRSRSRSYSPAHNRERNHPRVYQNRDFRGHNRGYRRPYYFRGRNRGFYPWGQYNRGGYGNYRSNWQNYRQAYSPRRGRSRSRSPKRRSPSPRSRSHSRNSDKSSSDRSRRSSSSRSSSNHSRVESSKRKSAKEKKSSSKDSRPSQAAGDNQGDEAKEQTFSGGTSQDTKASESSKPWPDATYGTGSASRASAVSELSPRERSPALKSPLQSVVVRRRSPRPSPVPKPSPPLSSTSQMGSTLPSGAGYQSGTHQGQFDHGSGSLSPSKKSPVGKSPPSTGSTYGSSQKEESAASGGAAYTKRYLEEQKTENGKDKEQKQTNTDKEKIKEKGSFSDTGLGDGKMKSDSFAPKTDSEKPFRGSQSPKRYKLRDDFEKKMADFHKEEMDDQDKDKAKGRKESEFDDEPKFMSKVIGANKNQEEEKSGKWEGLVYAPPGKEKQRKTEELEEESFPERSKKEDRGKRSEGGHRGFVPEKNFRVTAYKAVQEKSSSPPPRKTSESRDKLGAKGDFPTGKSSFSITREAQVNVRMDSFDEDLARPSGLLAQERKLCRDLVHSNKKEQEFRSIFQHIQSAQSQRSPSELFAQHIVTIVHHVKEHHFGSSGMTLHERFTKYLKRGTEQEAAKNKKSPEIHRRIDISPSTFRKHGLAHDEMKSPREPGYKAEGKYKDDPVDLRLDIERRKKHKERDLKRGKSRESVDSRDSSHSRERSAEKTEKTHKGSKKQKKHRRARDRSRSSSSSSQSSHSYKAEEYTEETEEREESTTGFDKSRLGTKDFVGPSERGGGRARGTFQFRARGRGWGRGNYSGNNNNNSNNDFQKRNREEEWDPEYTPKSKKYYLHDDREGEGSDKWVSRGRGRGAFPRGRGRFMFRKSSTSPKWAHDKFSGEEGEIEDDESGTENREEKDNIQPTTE

[6] = molecular target: T2, Dual specificity protein kinase TTK (Homo sapiens, UniProt P33981)
T2 sequence (P33981 whole entry): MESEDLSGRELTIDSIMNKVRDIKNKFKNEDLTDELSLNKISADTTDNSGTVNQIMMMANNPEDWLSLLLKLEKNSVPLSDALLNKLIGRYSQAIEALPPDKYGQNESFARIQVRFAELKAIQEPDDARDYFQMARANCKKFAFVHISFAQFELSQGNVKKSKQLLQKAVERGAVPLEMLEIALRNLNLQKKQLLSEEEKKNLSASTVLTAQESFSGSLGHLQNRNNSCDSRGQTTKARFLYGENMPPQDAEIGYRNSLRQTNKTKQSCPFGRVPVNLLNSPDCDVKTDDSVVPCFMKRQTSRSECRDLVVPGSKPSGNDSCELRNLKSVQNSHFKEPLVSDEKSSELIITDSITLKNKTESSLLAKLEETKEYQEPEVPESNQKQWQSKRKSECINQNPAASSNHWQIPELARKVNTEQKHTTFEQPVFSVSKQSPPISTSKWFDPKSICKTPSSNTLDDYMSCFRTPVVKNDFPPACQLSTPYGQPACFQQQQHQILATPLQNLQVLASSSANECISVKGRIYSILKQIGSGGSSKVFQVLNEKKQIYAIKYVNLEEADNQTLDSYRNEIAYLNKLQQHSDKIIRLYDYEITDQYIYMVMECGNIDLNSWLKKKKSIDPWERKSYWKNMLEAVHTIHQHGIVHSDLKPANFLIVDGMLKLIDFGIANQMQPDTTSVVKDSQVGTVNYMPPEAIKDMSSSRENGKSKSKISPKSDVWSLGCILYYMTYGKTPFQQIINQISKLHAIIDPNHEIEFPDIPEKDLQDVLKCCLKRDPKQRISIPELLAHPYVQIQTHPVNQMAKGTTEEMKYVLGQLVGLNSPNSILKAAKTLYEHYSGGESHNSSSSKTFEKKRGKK

[7] = molecular target: Cell division cycle 7-related protein kinase (Homo sapiens, UniProt O00311)
Cell division cycle 7-related protein kinase, sequence (O00311 whole entry): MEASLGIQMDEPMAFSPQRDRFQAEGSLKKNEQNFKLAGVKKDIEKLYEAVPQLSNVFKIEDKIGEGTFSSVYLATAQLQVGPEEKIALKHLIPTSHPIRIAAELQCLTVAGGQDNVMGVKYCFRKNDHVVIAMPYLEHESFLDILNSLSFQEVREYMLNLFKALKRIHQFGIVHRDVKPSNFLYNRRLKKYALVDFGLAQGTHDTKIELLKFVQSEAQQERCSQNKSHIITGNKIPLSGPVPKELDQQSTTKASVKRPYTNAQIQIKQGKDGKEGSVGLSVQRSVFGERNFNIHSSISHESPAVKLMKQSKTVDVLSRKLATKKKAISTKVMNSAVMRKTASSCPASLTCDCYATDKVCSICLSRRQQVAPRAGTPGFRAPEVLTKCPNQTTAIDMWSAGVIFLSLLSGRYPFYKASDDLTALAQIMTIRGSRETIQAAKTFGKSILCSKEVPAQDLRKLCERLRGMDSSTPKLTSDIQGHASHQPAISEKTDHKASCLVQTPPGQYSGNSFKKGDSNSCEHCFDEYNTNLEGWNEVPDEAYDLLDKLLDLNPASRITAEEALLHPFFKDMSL

UMP-CMP kinase = molecular target: T3, UMP-CMP kinase (Homo sapiens, UniProt P30085)
T3 sequence (P30085 whole entry): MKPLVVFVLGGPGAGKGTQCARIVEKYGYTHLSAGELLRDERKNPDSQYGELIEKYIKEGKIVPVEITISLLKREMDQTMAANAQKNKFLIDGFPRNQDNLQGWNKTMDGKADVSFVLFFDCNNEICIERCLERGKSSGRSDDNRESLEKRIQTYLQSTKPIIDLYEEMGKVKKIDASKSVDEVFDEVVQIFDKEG
Note: in the data inactive means no Kd found up to 30 µM.

Dual specificity protein kinase CLK3, sequence (P49761 whole entry, the tested form may be a part): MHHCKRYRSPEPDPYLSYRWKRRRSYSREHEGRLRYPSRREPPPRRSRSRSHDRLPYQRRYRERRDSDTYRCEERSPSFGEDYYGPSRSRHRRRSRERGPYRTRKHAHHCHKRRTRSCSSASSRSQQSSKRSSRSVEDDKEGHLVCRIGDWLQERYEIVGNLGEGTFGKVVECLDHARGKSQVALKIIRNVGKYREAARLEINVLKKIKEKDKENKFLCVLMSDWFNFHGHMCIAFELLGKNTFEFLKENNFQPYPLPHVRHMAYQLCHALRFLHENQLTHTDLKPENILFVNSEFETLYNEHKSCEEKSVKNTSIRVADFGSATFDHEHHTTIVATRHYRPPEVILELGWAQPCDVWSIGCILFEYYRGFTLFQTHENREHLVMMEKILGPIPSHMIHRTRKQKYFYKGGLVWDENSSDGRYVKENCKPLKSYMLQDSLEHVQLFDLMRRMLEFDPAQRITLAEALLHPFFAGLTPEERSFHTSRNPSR
Uncharacterized aarF domain-containing protein kinase 5, sequence (Q3MIX3 whole entry, the tested form may be a part): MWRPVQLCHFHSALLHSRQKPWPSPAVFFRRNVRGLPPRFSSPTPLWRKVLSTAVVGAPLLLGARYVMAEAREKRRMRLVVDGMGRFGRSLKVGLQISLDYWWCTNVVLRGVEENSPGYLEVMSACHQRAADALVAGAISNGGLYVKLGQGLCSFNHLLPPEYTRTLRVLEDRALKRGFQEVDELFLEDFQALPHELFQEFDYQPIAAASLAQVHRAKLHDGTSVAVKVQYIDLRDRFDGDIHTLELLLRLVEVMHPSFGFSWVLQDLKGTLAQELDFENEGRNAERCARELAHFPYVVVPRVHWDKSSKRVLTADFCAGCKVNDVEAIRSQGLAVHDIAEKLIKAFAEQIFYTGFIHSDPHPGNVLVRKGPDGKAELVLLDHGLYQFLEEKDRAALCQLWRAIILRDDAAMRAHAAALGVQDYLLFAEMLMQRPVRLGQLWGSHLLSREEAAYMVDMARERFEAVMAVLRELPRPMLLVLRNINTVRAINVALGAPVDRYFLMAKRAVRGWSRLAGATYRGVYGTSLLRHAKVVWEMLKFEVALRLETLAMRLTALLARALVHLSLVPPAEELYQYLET

| SMILES | Kd [1] | Kd [2] | Kd [3] | Kd (Focal adhesion kinase 1) | Kd [4] | Kd [5] | Kd [6] | Kd [7] | Kd (UMP-CMP kinase) |
| --- | --- | --- | --- | --- | --- | --- | --- | --- | --- |
| Cn1c(=O)c(F)c(Nc2ccc(I)cc2F)c2c(=O)n(C[C@@H](O)CO)cnc21 [TAK-733] | > 30 µM (inactive) | > 30 µM (inactive) | > 30 µM (inactive) | > 30 µM (inactive) | > 30 µM (inactive) | > 30 µM (inactive) | > 30 µM (inactive) | – | – |
| COc1cc2ncnc3c2cc1OCCCCCN(C)Cc1ccc(Br)cc1N3 [JNJ-26483327] | – | > 30 µM (inactive) | – | > 30 µM (inactive) | > 30 µM (inactive) | > 30 µM (inactive) | – | – | – |
| Cc1cc(C(=O)Nc2cc(Oc3ccc4nc(NC(=O)C5CC5)cn4n3)ccc2C)n(C)n1 [TAK-593] | – | > 30 µM (inactive) | – | > 30 µM (inactive) | > 30 µM (inactive) | – | – | – | – |
| C[C@]1(O)C[C@@H](c2nc(-c3ccc4ccc(-c5ccccc5)nc4c3)c3c(N)nccn32)C1 [LINSITINIB] | > 30 µM (inactive) | – | > 30 µM (inactive) | – | > 30 µM (inactive) | > 30 µM (inactive) | > 30 µM (inactive) | > 30 µM (inactive) | – |
| COc1cc2ncnc(Nc3ccc(O)cc3)c2cc1OC [WHI-P131] | – | – | > 30 µM (inactive) | > 30 µM (inactive) | > 30 µM (inactive) | > 30 µM (inactive) | > 30 µM (inactive) | – | > 30 µM (inactive) |
| O=C(O)c1ccc2c(c1)nc(Nc1cccc(Cl)c1)c1ccncc12 [SILMITASERTIB] | 0.01 µM (active) | – | > 30 µM (inactive) | > 30 µM (inactive) | > 30 µM (inactive) | > 30 µM (inactive) | > 30 µM (inactive) | – | – |
| S=C(NCc1ccc2c(c1)OCO2)N1CCN(c2ncnc3c2oc2ccccc23)CC1 [AMUVATINIB] | – | – | > 30 µM (inactive) | > 30 µM (inactive) | – | > 30 µM (inactive) | – | > 30 µM (inactive) | > 30 µM (inactive) |
| CN1CCN(c2nc(C3=C(c4c[nH]c5ccccc45)C(=O)NC3=O)c3ccccc3n2)CC1 [SOTRASTAURIN] | > 30 µM (inactive) | > 30 µM (inactive) | > 30 µM (inactive) | > 30 µM (inactive) | > 30 µM (inactive) | – | > 30 µM (inactive) | > 30 µM (inactive) | – |
| CCOc1ccn(-c2ccc(F)cc2)c(=O)c1C(=O)Nc1ccc(Oc2ccnc(N)c2Cl)c(F)c1 [BMS-777607] | – | – | – | – | – | – | – | > 30 µM (inactive) | – |
| CNC(=O)c1cc(COc2nnc(Nc3ccc(Cl)cc3)c3ccoc23)ccn1 [TELATINIB] | – | – | > 30 µM (inactive) | > 30 µM (inactive) | > 30 µM (inactive) | – | > 30 µM (inactive) | – | – |
| COc1cc2c(N3CCN(C(=O)Nc4ccc(OC(C)C)cc4)CC3)ncnc2cc1OCCCN1CCCCC1 [TANDUTINIB] | – | – | > 30 µM (inactive) | – | – | > 30 µM (inactive) | – | > 30 µM (inactive) | – |
| CNC(=O)c1ccc(Nc2ncc(C(F)(F)F)c(NCc3nccnc3N(C)S(C)(=O)=O)n2)cc1 [DEFACTINIB] | – | > 30 µM (inactive) | > 30 µM (inactive) | – | > 30 µM (inactive) | > 30 µM (inactive) | > 30 µM (inactive) | > 30 µM (inactive) | – |
| CC(C)(O)CC(=O)NCCn1ccc2ncnc(Nc3ccc(Oc4cccc(C(F)(F)F)c4)c(Cl)c3)c21 [TAK-285] | – | – | > 30 µM (inactive) | > 30 µM (inactive) | > 30 µM (inactive) | – | – | > 30 µM (inactive) | – |
| c1cc(OCCN2CCCCC2)cc(-c2n[nH]c3ccc(-c4nc[nH]n4)cc23)c1 [CC-401] | – | > 30 µM (inactive) | > 30 µM (inactive) | > 30 µM (inactive) | > 30 µM (inactive) | > 30 µM (inactive) | > 30 µM (inactive) | – | – |
| CC(C)CC(=O)Nc1[nH]nc2c1CN(C(=O)C1CCN(C)CC1)C2(C)C [PHA-793887] | – | > 30 µM (inactive) | – | – | – | – | – | > 30 µM (inactive) | > 30 µM (inactive) |
| CC[C@@](C)(Nc1ccnc(-c2c[nH]c3ncccc23)n1)C(=O)NCC(F)(F)F [DECERNOTINIB] | – | – | – | > 30 µM (inactive) | > 30 µM (inactive) | – | – | – | – |
| O=c1[nH]c([C@@H]2CCCN2)nc2c1oc1ccc(Cl)cc12 | – | – | – | > 30 µM (inactive) | – | – | – | > 30 µM (inactive) | – |
| CCc1nc(C(N)=O)c(Nc2ccc(N3CCC(N4CCN(C)CC4)CC3)c(OC)c2)nc1NC1CCOCC1 [GILTERITINIB] | – | – | – | > 30 µM (inactive) | > 30 µM (inactive) | > 30 µM (inactive) | > 30 µM (inactive) | – | – |
| C=CC(=O)Nc1cccc(Nc2nc(Nc3ccc(N4CCN(C(C)=O)CC4)cc3OC)ncc2C(F)(F)F)c1 [ROCILETINIB] | – | > 30 µM (inactive) | – | 0.433 µM (active) | > 30 µM (inactive) | – | – | – | – |
| O=C(NOC[C@H](O)CO)c1ccc(F)c(F)c1Nc1ccc(I)cc1F [MIRDAMETINIB] | > 30 µM (inactive) | > 30 µM (inactive) | > 30 µM (inactive) | > 30 µM (inactive) | > 30 µM (inactive) | > 30 µM (inactive) | > 30 µM (inactive) | – | – |
| NC[C@@](O)(c1ccc(Cl)cc1)c1ccc(-c2cn[nH]c2)cc1 [AT-13148] | – | – | – | > 30 µM (inactive) | – | > 30 µM (inactive) | – | – | > 30 µM (inactive) |
| C=CCN(/C=C1/C(=O)O[C@H](COC)[C@@]2(C)C1=C(O)C(=O)C1=C2[C@H](OC(C)=O)C[C@]2(C)C(=O)CC[C@@H]12)CC=C [SONOLISIB] | – | – | – | > 30 µM (inactive) | > 30 µM (inactive) | > 30 µM (inactive) | – | – | – |
| N#CCNC(=O)c1ccc(-c2ccnc(Nc3ccc(N4CCOCC4)cc3)n2)cc1 [MOMELOTINIB] | – | – | – | – | – | – | > 30 µM (inactive) | – | > 30 µM (inactive) |
| C[C@@H]1COC(Nc2ccc3ncnc(Nc4ccc(OCc5nccs5)c(Cl)c4)c3c2)=N1 [VARLITINIB] | – | – | > 30 µM (inactive) | > 30 µM (inactive) | > 30 µM (inactive) | > 30 µM (inactive) | > 30 µM (inactive) | > 30 µM (inactive) | – |
| Cc1c(NC(=O)OC[C@@H]2COCCN2)cn2ncnc(Nc3ccc4c(cnn4Cc4cccc(F)c4)c3)c12 [AC-480] | – | – | – | > 30 µM (inactive) | > 30 µM (inactive) | > 30 µM (inactive) | > 30 µM (inactive) | – | – |
| COc1ccc(-c2ccc3ncc4c(c3c2)n(-c2ccc(N3CCNCC3)c(C(F)(F)F)c2)c(=O)n4C)cn1 [BGT-226 FREE BASE] | – | > 30 µM (inactive) | – | > 30 µM (inactive) | > 30 µM (inactive) | – | > 30 µM (inactive) | > 30 µM (inactive) | > 30 µM (inactive) |
| CCN(CCCOc1ccc2c(Nc3cc(CC(=O)Nc4cccc(F)c4)n[nH]3)ncnc2c1)CCOP(=O)(O)O [BARASERTIB] | > 30 µM (inactive) | – | – | – | > 30 µM (inactive) | > 30 µM (inactive) | – | – | – |
| FC(F)(F)c1ccc(CNc2ccc(Cc3c[nH]c4ncc(Cl)cc34)cn2)cn1 [PEXIDARTINIB] | – | – | – | > 30 µM (inactive) | > 30 µM (inactive) | – | > 30 µM (inactive) | > 30 µM (inactive) | – |
